What is called IC50 is the concentration that inhibits the measured activity by half.

Each structure is given as a SMILES string.

The subject of this assay is Plasmodium falciparum. Put plainly: Antiplasmodial activity against chloroquine-resistant Plasmodium falciparum W2 infected in human erythrocytes assessed as reduction in parasitemia after 48 hrs by flow cytometry analysis. To be noted: W2, 48 h. It is filed as functional, organism-based. In general terms: Flow cytometry measures light scatter and fluorescence of single cells or particles in a stream.

Regarding `CC(=O)OC1=C(CCCCC[P+](c2ccccc2)(c2ccccc2)c2ccccc2)C(=O)c2ccccc2C1=O`, the half-inhibitory concentration (IC50) came to 1900 nM. As to `O=C1C(Cc2ccc(Cl)cc2)=C(OCCCCCC[P+](c2ccccc2)(c2ccccc2)c2ccccc2)C(=O)c2ccccc21`, the IC50 came out at 49.5 nM. Consider `CCCCCCCCCCC1=C(C)C(=O)c2ccccc2C1=O`, for which the IC50 is more than 10000 nM. Next, `O=C1C(O)=C(c2ccc(OCCCCCCCCCC[P+](c3ccccc3)(c3ccccc3)c3ccccc3)cc2)C(=O)c2ccccc21`: 6640 nM; `O=C1C(O)=C(CCCCCCCCCC[P+](c2ccccc2)(c2ccccc2)c2ccccc2)C(=O)c2ccccc21`: 2180 nM.

`CC1=C(OCC(=O)OCCC[P+](c2ccccc2)(c2ccccc2)c2ccccc2)C(=O)c2ccccc2C1=O`: the half-maximal inhibitory concentration (IC50) was determined as 1230 nM. For the compound `CCCCCCCCCCC1=C(O)C(=O)c2ccccc2C1=O`, the IC50 was determined as 339 nM. Next, `O=C1C(OCCC[P+](c2ccccc2)(c2ccccc2)c2ccccc2)=C(C2CCCCC2)C(=O)c2ccccc21`: 42.3 nM; `CCCC[P+](CCCC)(CCCC)CCCCCCCCCCC1=C(O)C(=O)c2ccccc2C1=O`: 3860 nM; `O=C1C(O)=C(c2ccc(OCCC[P+](c3ccccc3)(c3ccccc3)c3ccccc3)cc2)C(=O)c2ccccc21`: 6730 nM. `O=C1C(O)=C([C@H]2CC[C@H](c3ccc(Cl)cc3)CC2)C(=O)c2ccccc21` [ATOVAQUONE]: the IC50 was found to be 0.5 nM. To `O=C1C(OCCCCCC[P+](c2ccccc2)(c2ccccc2)c2ccccc2)=C(C2CCCCC2)C(=O)c2ccccc21` belongs 47.9 nM; to `O=C1C(Cc2ccccc2)=C(OCCC[P+](c2ccccc2)(c2ccccc2)c2ccccc2)C(=O)c2ccccc21`, 46.7 nM; to `CC1=C(OCCCCCC[P+](c2ccccc2)(c2ccccc2)c2ccccc2)C(=O)c2ccccc2C1=O`, 42.7 nM. To `CCCCCCCCCCC1=C(OC(C)=O)C(=O)c2ccccc2C1=O` belongs 392 nM.

With `CC1=C(OC(=O)CCC[P+](c2ccccc2)(c2ccccc2)c2ccccc2)C(=O)c2ccccc2C1=O`, the half-maximal inhibitory concentration (IC50) worked out at 4600 nM. To `CC1=C(OC(=O)CCCCCCCCCC[P+](c2ccccc2)(c2ccccc2)c2ccccc2)C(=O)c2ccccc2C1=O` belongs 1380 nM; to `CC(=O)OC1=C(CCCCCCCCCC[P+](c2ccccc2)(c2ccccc2)c2ccccc2)C(=O)c2ccccc2C1=O`, 3590 nM; to `COc1ccc(C2=C(OCCC[P+](c3ccccc3)(c3ccccc3)c3ccccc3)C(=O)c3ccccc3C2=O)cc1`, 17.4 nM. With `O=C1C=C(OCCCCCC[P+](c2ccccc2)(c2ccccc2)c2ccccc2)C(=O)c2ccccc21`, the half-inhibitory concentration (IC50) came to 28.5 nM. Next, `CC1=C(OCCC[n+]2ccccc2)C(=O)c2ccccc2C1=O`: 167 nM; `O=C1C=C(OCCC[P+](c2ccccc2)(c2ccccc2)c2ccccc2)C(=O)c2ccccc21`: 40 nM; `CC1=C(OCCC[n+]2ccn(C)c2)C(=O)c2ccccc2C1=O`: 165 nM. Next, `C[C@@H]1CC[C@H]2[C@@H](C)C(=O)O[C@@H]3O[C@@]4(C)CC[C@@H]1[C@]32OO4` [ARTEMISININ]: 18.1 nM; `O=C1C(O)=C(CCCCC[P+](c2ccccc2)(c2ccccc2)c2ccccc2)C(=O)c2ccccc21`: 4080 nM; `CC1=C(OCCCCCCCCCC[P+](c2ccccc2)(c2ccccc2)c2ccccc2)C(=O)c2ccccc2C1=O`: 119 nM. To `CC(=O)OC1=C(c2ccc(OCCCCCCCCCC[P+](c3ccccc3)(c3ccccc3)c3ccccc3)cc2)C(=O)c2ccccc2C1=O` belongs 7120 nM; to `CC(=O)OC1=C(c2ccc(OCCCC[P+](c3ccccc3)(c3ccccc3)c3ccccc3)cc2)C(=O)c2ccccc2C1=O`, 5440 nM; to `O=C1C(O)=C(CCCCCCCCCC[P+](Cc2ccccc2)(Cc2ccccc2)Cc2ccccc2)C(=O)c2ccccc21`, 3280 nM. In the case of `O=C1C(Cc2ccccc2)=C(OCCCCCC[P+](c2ccccc2)(c2ccccc2)c2ccccc2)C(=O)c2ccccc21`, the concentration for half-maximal inhibition (IC50) came to 49.1 nM. Next, `CC1=C(OCCC[P+](c2ccccc2)(c2ccccc2)c2ccccc2)C(=O)c2ccccc2C1=O`: 41.9 nM.

These data come from ChEMBL document CHEMBL2203282, “1,4-naphthoquinone cations as antiplasmodial agents: hydroxy-, acyloxy-, and alkoxy-substituted analogues” (ACS Med Chem Lett, 2012).
